Source: patent publication US20090134028A1, “Method of Estimating Effect of Test Chemical on Living Organisms” (Chemicals Evaluation and Research Institute, priority 2005, published 2009)

Experiments:
[1] = Prediction of liver cell hypertrophy using SVM from post-translational modification data; parameters: species or system rat
liver cell = conditions: rat, in vivo
[2] = in vivo; cited from earlier work
rat liver protein = assay: Two-dimensional gel electrophoresis of liver proteins after 28-day oral administration: difference of log2(αx/αc) between spots derived from one protein; assay type: in vivo; conditions: oral 28 days
Experimental: 5-Weeks old male rats (F344, SPF strain) obtained from Charles River Laboratories Japan Inc. were divided into groups each consisting of three rats. To the rats of each chemical dosed group was forcibly administered orally a solution obtained by dissolving one of the chemicals shown in Tables 1 to 3, and to the rats of a vehicle control group was forcibly administered orally only a vehicle. The administration was conducted once a day for 28 days. On the 29th day from the start of administration, the liver of each rat was collected. A fragment was cut out from each liver and stored at −20° C. The protein collected from each rat was determined quantitatively by the Bradford method. Then, to the comparative sample collected from the chemical dosed group, the control sample collected from the vehicle control group, and a pool sample (which was a mixture of the comparative sample and the control sample) were added, at 0° C., Cy5, Cy3 and Cy2 (DMF solution, 1 ml) each of 200 pmol per […] of protein, and a labeling reaction was allowed to take place on ice for 30 minutes. After the completion of the reaction, an excessive amount of a Lysine solution (10 mM Lysis buffer solution, 1 ml) was added, followed by storage for 10 minutes to complete the reaction. Further, a x2 sample buffer [8 M urea, 4% (w/v) CHAPS, 20 mg/ml DTT, 2% (v/v) Pharmalytes] of same volume was added, followed by storage on ice for 10 minutes.
Then, the mixture of the resulting samples or each resulting sample was individually subjected to two-dimensional gel electrophoresis.
First-dimensional electrophoresis was conducted in Multiphor II (GE Helthcare Uk Ltd. Buckinghamshire, UK) using IPG (Immobilized pH Gradient) Strips (24 cm, pI3-10L) (GE Helthcare UK Ltd. Buckinghamshire, UK). A sample ([…] of protein) was added from a cup loading holder. Focussing was conducted by 40 kVh in total. After the electrophoresis, equilibration was made for 10 minutes each using a solution A obtained by adding 0.25% (w/v) of DTT to an equilibrating solution (50 mM Tris, pH 8.8, 6 M urea, 30% glycerol, 2% SDS) and a solution B obtained by adding 4.5% (w/v) of iodoacetamide to the equilibrating solution. Successively, second-dimensional electrophoresis was conducted in an Ettan DALT II system (GE Helthcare UK Ltd. Buckinghamshire, UK) using a self-made 12% uniform gel sandwiched between low-fluorescent glasses. Migration was conducted at 3 W (15° C.) overnight.
For each gel after migration, image capture was immediately conducted using Master Imager (GE Helthcare UK Ltd. Buckinghamshire, UK), at a wavelength corresponding to each Cy. The excitation wavelengths of Cy5, Cy3 and Cy2 were set at 625 nm, 480 nm and 425 nm, respectively, and their fluorescence wavelengths were set at 680 nm, 540 nm and 480 nm, respectively.
In the case of the sample obtained by mixing before electrophoresis, the recognition of spots of captured image and the quantitative determination and comparison between Cys in one gel were conducted using Decyder-DIA Soft (GE Helthcare UK Ltd. Buckinghamshire, UK). The matching of spots with the reference map of rat liver protein (2-D data base formed in-house by identifying rat liver 724 spots) was conducted using Decyder-BVA soft (GE Helthcare UK Ltd. Buckinghamshire, UK). When each sample after Cy labeling was independently subjected to electrophoresis, the quantitative determination of each spot and the matching of spots were conducted using PDQuest (Bio-Rad Laboratories, Inc.).
For the spots of the 127 proteins and their modified proteins, there was calculated a base 2 logarithm [log2(αx/αc)] of the ratio (αx/αc) of the expression amount (αx) of the comparative sample and the expression amount (αc) of the control sample. Then, a difference in logarithms was calculated between spots derived from one protein. The calculation of difference in logarithms was made for all combinations of spots derived from one protein. […]

For `O=NN1CCOCC1` [N-nitrosomorpholine], the Prediction result [1] was −1 CORRECT, the “Finding of hepatocyte hypertrpy” value (liver cell) was “−” and the “pathology of liver cell hypertrophy in the liver” value (liver cell) was “no pathology of liver cell hypertrophy was seen”. For the same compound, the Carcinogenicity [2] was “+”, the “Difference of log2(αx/αc)” value (rat liver protein; ATP synthase alpha chain, spots 1064-1096, absolute value) was 1.824 and the “Difference of log2(αx/αc)” value (rat liver protein; Carbonate dehydrogenase III, spots 2098-2113, absolute value) was 1.038. The “Difference of log2(αx/αc)” value (rat liver protein; Cytoskeleton I type keratin-19, spots 1174-1447, absolute value) was 1.451, the “Difference of log2(αx/αc)” value (rat liver protein; Cytoskeleton II type keratin-8, spots 1068-1481, absolute value) was 1.344 and the “Difference of log2(αx/αc)” value (rat liver protein; Heat shock protein 60 kDa, spots 941-974, absolute value) was 1.910. For the same compound, the “Difference of log2(αx/αc)” value (rat liver protein; Hydroxyglutaryl-CoA synthase, spots 1215-1216, absolute value) was 0.948, the “Difference of log2(αx/αc)” value (rat liver protein; MAWD binding protein, spots 2032-2036, absolute value) was 1.256 and the “Difference of log2(αx/αc)” value (rat liver protein; Non-muscle type caldesmon, spots 628-654, absolute value) was 1.618. For the same compound, the “Difference of log2(αx/αc)” value (rat liver protein; RIKEN cDNA 0610010D20, spots 1708-1753, absolute value) was 1.349 and the “Difference of log2(αx/αc)” value (rat liver protein; Transketorase, spots 789-813, absolute value) was 1.074.
